Legend:
[1] = human gut metagenome, 24 h, 2 µM
[2] = human gut metagenome, 24 h, 2 µM; remark: listed apart in the source
[3] = human gut metagenome, 24 h, 2 µM; remark: listed apart in the source
[4] = (§1) The drug is tested on Z-019 corresponding to rat gut metagenome with ENA study accession number: PRJEB37062 and ENA sample accession number: ERS12561818 for biotransformation under anaerobic condition. The drug concentrations were measured over 9 timepoints collected between 0 and 24 hours of incubation by liquid-chromatography-coupled mass spectrometry (LC–MS); conditions: 2 µM
[5] = as §1, with “on Z-013” for “on Z-019”, “to rabbit” for “to rat”, “number: ERS12561813” for “number: ERS12561818”; conditions: 2 µM
[6] = as §1, with “on WLS-052” for “on Z-019”, “to human” for “to rat”, “number: ERS12561747” for “number: ERS12561818”; conditions: 2 µM
[7] = human gut metagenome, 24 h, 2 µM; remark: listed apart in the source
[8] = human gut metagenome, 24 h, 2 µM; remark: listed apart in the source
[9] = human gut metagenome, 24 h, 2 µM; remark: listed apart in the source
[10] = as §1, with “on Z-011” for “on Z-019”, “to mouse” for “to rat”, “number: ERS12561811” for “number: ERS12561818”; conditions: 2 µM
[11] = as §1, with “Z-007” for “Z-019”, “ERS12561807” for “ERS12561818”; conditions: 2 µM
[12] = human gut metagenome, 24 h, 2 µM; remark: listed apart in the source
[13] = as §1, with “on WLS-077” for “on Z-019”, “to human” for “to rat”, “number: ERS12561750” for “number: ERS12561818”; conditions: 2 µM
[14] = human gut metagenome, 24 h, 2 µM; remark: listed apart in the source
[15] = as §1, with “on Z-024” for “on Z-019”, “to pig” for “to rat”, “number: ERS12561823” for “number: ERS12561818”; conditions: 2 µM
[16] = as §1, with “on Z-016” for “on Z-019”, “to mouse” for “to rat”, “number: ERS12561815” for “number: ERS12561818”; conditions: 2 µM
[17] = human gut metagenome, 24 h, 2 µM; remark: listed apart in the source
[18] = as §1, with “on Z-022” for “on Z-019”, “to mouse” for “to rat”, “number: ERS12561821” for “number: ERS12561818”; conditions: 2 µM
[19] = as §1, with “Z-014” for “Z-019”, “ERS12561814” for “ERS12561818”; conditions: 2 µM
[20] = as §1, with “on Z-001” for “on Z-019”, “to mouse” for “to rat”, “number: ERS12561801” for “number: ERS12561818”; conditions: 2 µM
Further: call rule not given here.

Q: What does the source list for `Cc1nc2n(c(=O)c1CCN1CCC(c3noc4cc(F)ccc34)CC1)CCCC2` [RISPERIDONE]?
A: Bacterial Biotransformation [1]: Compound metabolized; Bacterial Biotransformation [2]: Compound metabolized; Bacterial Biotransformation [3]: Compound metabolized; Bacterial Biotransformation [4]: Compound NOT metabolized; Bacterial Biotransformation [5]: Compound metabolized; Bacterial Biotransformation [6]: Compound metabolized; Bacterial Biotransformation [7]: Compound metabolized; Bacterial Biotransformation [8]: Compound metabolized; Bacterial Biotransformation [9]: Compound NOT metabolized; Bacterial Biotransformation [10]: Compound metabolized; Bacterial Biotransformation [11]: Compound metabolized; Bacterial Biotransformation [12]: Compound metabolized; Bacterial Biotransformation [13]: Compound metabolized; Bacterial Biotransformation [14]: Compound metabolized; Bacterial Biotransformation [15]: Compound metabolized; Bacterial Biotransformation [16]: Compound metabolized; Bacterial Biotransformation [17]: Compound metabolized; Bacterial Biotransformation [18]: Compound metabolized; Bacterial Biotransformation [19]: Compound metabolized; Bacterial Biotransformation [20]: Compound metabolized

Q: What does the source list for `CCc1nc(N)nc(N)c1-c1ccc(Cl)cc1` [PYRIMETHAMINE]?
A: Bacterial Biotransformation [1]: Compound NOT metabolized; Bacterial Biotransformation [2]: Compound NOT metabolized; Bacterial Biotransformation [3]: Compound NOT metabolized; Bacterial Biotransformation [4]: Compound NOT metabolized; Bacterial Biotransformation [5]: Compound NOT metabolized; Bacterial Biotransformation [6]: Compound NOT metabolized; Bacterial Biotransformation [7]: Compound NOT metabolized; Bacterial Biotransformation [8]: Compound metabolized; Bacterial Biotransformation [9]: Compound NOT metabolized; Bacterial Biotransformation [10]: Compound NOT metabolized; Bacterial Biotransformation [11]: Compound NOT metabolized; Bacterial Biotransformation [12]: Compound metabolized; Bacterial Biotransformation [13]: Compound NOT metabolized; Bacterial Biotransformation [14]: Compound NOT metabolized; Bacterial Biotransformation [15]: Compound metabolized; Bacterial Biotransformation [16]: Compound NOT metabolized; Bacterial Biotransformation [17]: Compound metabolized; Bacterial Biotransformation [18]: Compound metabolized; Bacterial Biotransformation [19]: Compound NOT metabolized; Bacterial Biotransformation [20]: Compound NOT metabolized

Q: For `CC(C)NCC(O)COc1ccc(COCCOC(C)C)cc1.CC(C)NCC(O)COc1ccc(COCCOC(C)C)cc1.O=C(O)/C=C/C(=O)O` (stereo not given) [BISOPROLOL FUMARATE], which “Bacterial Biotransformation” value [1] is on record?
A: Its value is “Compound NOT metabolized”.

Q: And the “Bacterial Biotransformation” value [2]?
A: Its value is “Compound metabolized”.

Q: And the “Bacterial Biotransformation” value [3]?
A: Its value is “Compound NOT metabolized”.

Q: And the “Bacterial Biotransformation” value [4]?
A: Its value is “Compound NOT metabolized”.

Q: What about the “Bacterial Biotransformation” value [5] of the same compound?
A: Its value is “Compound NOT metabolized”.

Q: What about the “Bacterial Biotransformation” value [6] of the same compound?
A: Its value is “Compound NOT metabolized”.

Q: And the “Bacterial Biotransformation” value [7]?
A: The value was “Compound NOT metabolized”.

Q: What about the “Bacterial Biotransformation” value [8] of the same compound?
A: Its value is “Compound metabolized”.

Q: And the “Bacterial Biotransformation” value [9]?
A: Its value is “Compound NOT metabolized”.

Q: And the “Bacterial Biotransformation” value [10]?
A: The value was “Compound metabolized”.

Q: And the “Bacterial Biotransformation” value [11]?
A: Its value is “Compound NOT metabolized”.

Q: And the “Bacterial Biotransformation” value [12]?
A: Its value is “Compound NOT metabolized”.

Q: What about the “Bacterial Biotransformation” value [13] of the same compound?
A: The value was “Compound NOT metabolized”.

Q: And the “Bacterial Biotransformation” value [14]?
A: Its value is “Compound metabolized”.

Q: What about the “Bacterial Biotransformation” value [15] of the same compound?
A: Its value is “Compound metabolized”.

Q: And the “Bacterial Biotransformation” value [16]?
A: Its value is “Compound NOT metabolized”.

Q: And the “Bacterial Biotransformation” value [17]?
A: The value was “Compound metabolized”.

Q: What about the “Bacterial Biotransformation” value [18] of the same compound?
A: The value was “Compound metabolized”.

Q: And the “Bacterial Biotransformation” value [19]?
A: Its value is “Compound NOT metabolized”.

Q: And the “Bacterial Biotransformation” value [20]?
A: Its value is “Compound metabolized”.

Q: Which “Bacterial Biotransformation” value [1] does the source give for `CN1CCN(C2=Nc3cc(Cl)ccc3Nc3ccccc32)CC1` [CLOZAPINE] here?
A: The value was “Compound NOT metabolized”.

Q: What about the “Bacterial Biotransformation” value [2] of the same compound?
A: Its value is “Compound NOT metabolized”.

Q: What about the “Bacterial Biotransformation” value [3] of the same compound?
A: Its value is “Compound metabolized”.

Q: What about the “Bacterial Biotransformation” value [4] of the same compound?
A: The value was “Compound NOT metabolized”.

Q: What about the “Bacterial Biotransformation” value [5] of the same compound?
A: Its value is “Compound NOT metabolized”.

Q: And the “Bacterial Biotransformation” value [6]?
A: The value was “Compound NOT metabolized”.

Q: What about the “Bacterial Biotransformation” value [7] of the same compound?
A: The value was “Compound NOT metabolized”.

Q: And the “Bacterial Biotransformation” value [8]?
A: The value was “Compound metabolized”.

Q: What about the “Bacterial Biotransformation” value [9] of the same compound?
A: Its value is “Compound NOT metabolized”.

Q: And the “Bacterial Biotransformation” value [10]?
A: Its value is “Compound NOT metabolized”.

Q: What about the “Bacterial Biotransformation” value [11] of the same compound?
A: Its value is “Compound NOT metabolized”.

Q: What about the “Bacterial Biotransformation” value [12] of the same compound?
A: Its value is “Compound metabolized”.

Q: What about the “Bacterial Biotransformation” value [13] of the same compound?
A: The value was “Compound NOT metabolized”.

Q: What about the “Bacterial Biotransformation” value [14] of the same compound?
A: The value was “Compound NOT metabolized”.

Q: And the “Bacterial Biotransformation” value [15]?
A: Its value is “Compound NOT metabolized”.

Q: And the “Bacterial Biotransformation” value [16]?
A: The value was “Compound NOT metabolized”.

Q: What about the “Bacterial Biotransformation” value [17] of the same compound?
A: The value was “Compound metabolized”.

Q: And the “Bacterial Biotransformation” value [18]?
A: The value was “Compound NOT metabolized”.

Q: And the “Bacterial Biotransformation” value [19]?
A: The value was “Compound NOT metabolized”.

Q: And the “Bacterial Biotransformation” value [20]?
A: Its value is “Compound NOT metabolized”.

Q: What does the source list for `CN1C(C(=O)Nc2ccccn2)=C(O)c2sccc2S1(=O)=O` [TENOXICAM]?
A: Bacterial Biotransformation [1]: Compound NOT metabolized; Bacterial Biotransformation [2]: Compound NOT metabolized; Bacterial Biotransformation [3]: Compound NOT metabolized; Bacterial Biotransformation [4]: Compound NOT metabolized; Bacterial Biotransformation [5]: Compound NOT metabolized; Bacterial Biotransformation [6]: Compound NOT metabolized; Bacterial Biotransformation [7]: Compound NOT metabolized; Bacterial Biotransformation [8]: Compound NOT metabolized; Bacterial Biotransformation [9]: Compound NOT metabolized; Bacterial Biotransformation [10]: Compound NOT metabolized; Bacterial Biotransformation [11]: Compound NOT metabolized; Bacterial Biotransformation [12]: Compound NOT metabolized; Bacterial Biotransformation [13]: Compound NOT metabolized; Bacterial Biotransformation [14]: Compound NOT metabolized; Bacterial Biotransformation [15]: Compound metabolized; Bacterial Biotransformation [16]: Compound NOT metabolized; Bacterial Biotransformation [17]: Compound NOT metabolized; Bacterial Biotransformation [18]: Compound metabolized; Bacterial Biotransformation [19]: Compound NOT metabolized; Bacterial Biotransformation [20]: Compound NOT metabolized

Q: For `CCOC(=O)[C@H](CCc1ccccc1)N[C@@H](C)C(=O)N1[C@H](C(=O)O)C[C@@H]2CCC[C@@H]21`, which “Bacterial Biotransformation” value [1] is on record?
A: The value was “Compound NOT metabolized”.

Q: What about the “Bacterial Biotransformation” value [2] of the same compound?
A: Its value is “Compound metabolized”.

Q: What about the “Bacterial Biotransformation” value [3] of the same compound?
A: Its value is “Compound metabolized”.

Q: What about the “Bacterial Biotransformation” value [4] of the same compound?
A: The value was “Compound NOT metabolized”.

Q: What about the “Bacterial Biotransformation” value [5] of the same compound?
A: The value was “Compound NOT metabolized”.

Q: And the “Bacterial Biotransformation” value [6]?
A: Its value is “Compound metabolized”.

Q: What about the “Bacterial Biotransformation” value [7] of the same compound?
A: The value was “Compound metabolized”.

Q: What about the “Bacterial Biotransformation” value [8] of the same compound?
A: Its value is “Compound metabolized”.

Q: What about the “Bacterial Biotransformation” value [9] of the same compound?
A: Its value is “Compound metabolized”.

Q: What about the “Bacterial Biotransformation” value [10] of the same compound?
A: The value was “Compound NOT metabolized”.

Q: And the “Bacterial Biotransformation” value [11]?
A: Its value is “Compound metabolized”.

Q: And the “Bacterial Biotransformation” value [12]?
A: Its value is “Compound metabolized”.

Q: What about the “Bacterial Biotransformation” value [13] of the same compound?
A: The value was “Compound metabolized”.

Q: What about the “Bacterial Biotransformation” value [14] of the same compound?
A: The value was “Compound metabolized”.

Q: And the “Bacterial Biotransformation” value [15]?
A: The value was “Compound metabolized”.

Q: What about the “Bacterial Biotransformation” value [16] of the same compound?
A: Its value is “Compound metabolized”.

Q: And the “Bacterial Biotransformation” value [17]?
A: The value was “Compound metabolized”.

Q: And the “Bacterial Biotransformation” value [18]?
A: The value was “Compound metabolized”.

Q: What about the “Bacterial Biotransformation” value [19] of the same compound?
A: Its value is “Compound NOT metabolized”.

Q: What about the “Bacterial Biotransformation” value [20] of the same compound?
A: Its value is “Compound NOT metabolized”.

Q: Which results are given for `O=C1[C@H](CC[C@H](O)c2ccc(F)cc2)[C@@H](c2ccc(O)cc2)N1c1ccc(F)cc1` [EZETIMIBE]?
A: Bacterial Biotransformation [1]: Compound NOT metabolized; Bacterial Biotransformation [2]: Compound NOT metabolized; Bacterial Biotransformation [3]: Compound metabolized; Bacterial Biotransformation [4]: Compound NOT metabolized; Bacterial Biotransformation [5]: Compound NOT metabolized; Bacterial Biotransformation [6]: Compound NOT metabolized; Bacterial Biotransformation [7]: Compound NOT metabolized; Bacterial Biotransformation [8]: Compound NOT metabolized; Bacterial Biotransformation [9]: Compound NOT metabolized; Bacterial Biotransformation [10]: Compound NOT metabolized; Bacterial Biotransformation [11]: Compound NOT metabolized; Bacterial Biotransformation [12]: Compound metabolized; Bacterial Biotransformation [13]: Compound metabolized; Bacterial Biotransformation [14]: Compound NOT metabolized; Bacterial Biotransformation [15]: Compound NOT metabolized; Bacterial Biotransformation [16]: Compound NOT metabolized; Bacterial Biotransformation [17]: Compound NOT metabolized; Bacterial Biotransformation [18]: Compound NOT metabolized; Bacterial Biotransformation [19]: Compound NOT metabolized; Bacterial Biotransformation [20]: Compound NOT metabolized

Source: ChEMBL document CHEMBL5724914, “Linking interpersonal differences in gut microbiota composition and drug biotransformation activity” (2024)
